{"source": "patent US11535643B2", "about": "“Macrolides with modified desosamine sugars and uses thereof” (President and Fellows of Harvard College, priority 2015, dated 2022)", "conditions": "from C=CCOC(=O)NC[C@@H]1C[C@H](N(C)C)[C@@H](OC(=O)OC)[C@H](O[C@H]([C@@H](C)C2=C(C)C(=O)OC(C)(C)O2)[C@@](C)(C[C@@H](C)CN[C@H](C)[C@H]2N(CCCCN=[N+]=[N-])C(=O)O[C@]2(C)[C@H](O)CC)OC)O1; ester bond; chlorobenzene; 1.0 mM; 150.0 °C; 16.0 h", "data": [{"compound": "C=CCOC(=O)NC[C@@H]1C[C@H](N(C)C)[C@@H](OC(=O)OC)[C@H](O[C@@H]2[C@@H](C)C(=O)[C@@H](C)C(=O)O[C@H](CC)[C@@]3(C)OC(=O)N(CCCCN=[N+]=[N-])[C@@H]3[C@@H](C)NC[C@H](C)C[C@@]2(C)OC)O1", "values": [{"measurement": "ring closure, yield of all isomers", "result": 70, "unit": "%"}]}]}
